Experiments:
Canis familiaris = organism: Canis familiaris; assay: Compound was evaluated for area under the curve in dog blood.; assay type: ADME, organism-based, Canis lupus familiaris; conditions: in vivo
M109 [1] = assay: In vivo antitumor activity evaluated against M-109 murine lung carcinoma cells in BALB/c mice administered intraperitoneally at a dose of 10 mg/kg; assay type: functional, Mus musculus; conditions: route intraperitoneal
[2] = Compound was evaluated for plasma clearance.; assay type: ADME, organism-based, Canis lupus familiaris; conditions: dog
M109 [3] = assay: In vivo antitumor activity evaluated against M-109 murine lung carcinoma cells in BALB/c mice administered intraperitoneally at a dose of 4.5 mg/kg; assay type: functional, Mus musculus; conditions: route intraperitoneal

| SMILES | AUC (Canis familiaris) [mg/min/L] | Tumor volume reduction (M109 [1]) [%] | clearance [2] [mL/min/kg] | Tumor volume reduction (M109 [3]) [%] |
| --- | --- | --- | --- | --- |
| N/C(S)=N/N=C/c1ncccc1NC(=O)OCc1ccc(OP(=O)([O-])[O-])cc1.[Na+].[Na+] | 74.04 | 46 | 43.8 | – |
| NC(=S)N/N=C/c1ncccc1N [TRIAPINE] | 71.59 | – | 40.6 | 30 |

Source: ChEMBL document CHEMBL1130665, “Synthesis and biological evaluation of a water soluble phosphate prodrug of 3-aminopyridine-2-carboxaldehyde thiosemicarbazone (3-AP)” (Bioorg Med Chem Lett, 1998)
